Measured values from patent US20240124432A1, “HERBICIDAL COMPOUNDS” (SYNGENTA CROP PROTECTION AG, priority 2020, published 2024).

What was measured:
Type in all cases: in vivo
AMAPA [1] = assay: Pre-emergence biological efficacy; conditions: Amaranthus palmeri, 312 h, evaluated after 13 days, read-out: damage to plant (100=total damage to plant; 0=no damage to plant)
Procedure, shortened: (§1)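 Injury rating (0 = no damage, 100 = plant killed) taken 13 days after a single spray of compound at the chosen dose onto freshly sown pots held 1 day in the glasshouse beforehand.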

ECHCG [2] = assay: Pre-emergence biological efficacy; conditions: Echinochloa crus-galli, 312 h, evaluated after 13 days, read-out: damage to plant (100=total damage to plant; 0=no damage to plant)
Procedure, shortened: as §1

EPHHL [3] = assay: Pre-emergence biological efficacy; conditions: Euphorbia heterophylla, 312 h, evaluated after 13 days, read-out: damage to plant (100=total damage to plant; 0=no damage to plant)
Procedure, shortened: as §1

IPOHE [4] = assay: Pre-emergence biological efficacy; conditions: Ipomoea hederacea, 312 h, evaluated after 13 days, read-out: damage to plant (100=total damage to plant; 0=no damage to plant)
Procedure, shortened: as §1

LOLPE [5] = assay: Pre-emergence biological efficacy; conditions: Lolium perenne, 312 h, evaluated after 13 days, read-out: damage to plant (100=total damage to plant; 0=no damage to plant)
Procedure, shortened: as §1

SETFA [6] = assay: Pre-emergence biological efficacy; conditions: Setaria faberi, 312 h, evaluated after 13 days, read-out: damage to plant (100=total damage to plant; 0=no damage to plant)
Procedure, shortened: as §1

AMAPA [7] = assay: Post-emergence biological efficacy; conditions: Amaranthus palmeri, 312 h, evaluated after 13 days, read-out: damage to plant (100=total damage to plant; 0=no damage to plant)
Procedure, shortened: (§2)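 Plants grown 14 days in glasshouse, then sprayed post-emergence with compound formulated in IF50 and diluted in 0.2% Genapol XO80 to the desired dose. Damage scored after 13 days on a 0–100 scale (100 = total damage).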

CHEAL = assay: Post-emergence biological efficacy; conditions: Chenopodium album, 312 h, evaluated after 13 days, read-out: damage to plant (100=total damage to plant; 0=no damage to plant)
Procedure, shortened: as §2

DIGSA = assay: Post-emergence biological efficacy; conditions: Digitaria sanguinalis, 312 h, evaluated after 13 days, read-out: damage to plant (100=total damage to plant; 0=no damage to plant)
Procedure, shortened: as §2

ECHCG [8] = assay: Post-emergence biological efficacy; conditions: Echinochloa crus-galli, 312 h, evaluated after 13 days, read-out: damage to plant (100=total damage to plant; 0=no damage to plant)
Procedure, shortened: as §2

ELEIN = assay: Post-emergence biological efficacy; conditions: 312 h, evaluated after 13 days, read-out: damage to plant (100=total damage to plant; 0=no damage to plant)
Procedure, shortened: as §2

EPHHL [9] = assay: Post-emergence biological efficacy; conditions: Euphorbia heterophylla, 312 h, evaluated after 13 days, read-out: damage to plant (100=total damage to plant; 0=no damage to plant)
Procedure, shortened: as §2

IPOHE [10] = assay: Post-emergence biological efficacy; conditions: Ipomoea hederacea, 312 h, evaluated after 13 days, read-out: damage to plant (100=total damage to plant; 0=no damage to plant)
Procedure, shortened: as §2

LOLPE [11] = assay: Post-emergence biological efficacy; conditions: Lolium perenne, 312 h, evaluated after 13 days, read-out: damage to plant (100=total damage to plant; 0=no damage to plant)
Procedure, shortened: as §2

SETFA [12] = assay: Post-emergence biological efficacy; conditions: Setaria faberi, 312 h, evaluated after 13 days, read-out: damage to plant (100=total damage to plant; 0=no damage to plant)
Procedure, shortened: as §2

| SMILES | pest or weed control at 250 g/ha (AMAPA [1]) [%] | pest or weed control at 250 g/ha (ECHCG [2]) [%] | pest or weed control at 250 g/ha (EPHHL [3]) [%] | pest or weed control at 250 g/ha (IPOHE [4]) [%] | pest or weed control at 250 g/ha (LOLPE [5]) [%] | pest or weed control at 250 g/ha (SETFA [6]) [%] | pest or weed control at 250 g/ha (AMAPA [7]) [%] | pest or weed control at 250 g/ha (CHEAL) [%] | pest or weed control at 250 g/ha (DIGSA) [%] | pest or weed control at 250 g/ha (ECHCG [8]) [%] | pest or weed control at 250 g/ha (ELEIN) [%] | pest or weed control at 250 g/ha (EPHHL [9]) [%] | pest or weed control at 250 g/ha (IPOHE [10]) [%] | pest or weed control at 250 g/ha (LOLPE [11]) [%] | pest or weed control at 250 g/ha (SETFA [12]) [%] |
| --- | --- | --- | --- | --- | --- | --- | --- | --- | --- | --- | --- | --- | --- | --- | --- |
| CCOC(=O)C1(C)CC(c2cc(-c3cnc4ccccc4c3)c(F)cc2Cl)=NO1 (stereo not drawn) [Compound 1-439, Ethyl 3-[2-chloro-4-fluoro-5-(3-quinolyl)-phenyl]-5-methyl-4H-isoxazole-5-carboxylate] | 50 | 30 | 10 | 10 | 20 | 20 | 70 | 50 | 30 | 30 | 50 | 40 | 40 | 20 | 30 |
| CCOC(=O)C1(C)CC(c2cc(-c3cnc4c(c3)OC(F)(F)O4)c(F)cc2Cl)=NO1 (stereo not drawn) [Compound 1-451, Ethyl 3-[2-chloro-5-(2,2-difluoro-[1,3]dioxolo[4,5-b]pyridin-6-yl)-4-fluoro-phenyl]-5-methyl-4H-isoxazole-5-carboxylate] | 90 | 40 | 80 | 50 | 40 | 40 | 100 | 100 | 100 | 100 | 100 | 100 | 100 | 100 | 100 |
| CCOC(=O)C1(C)CC(c2cc(-c3ccc(C)nc3F)c(F)cc2Cl)=NO1 (stereo not drawn) [Compound 1-463, Ethyl 3-[2-chloro-4-fluoro-5-(2-fluoro-6-methyl-3-pyridyl)-phenyl]-5-methyl-4H-isoxazole-5-carboxylate] | 20 | 50 | 20 | 10 | 10 | 30 | 70 | 70 | 70 | 90 | 60 | 70 | 100 | 0 | 90 |
| CCOC(=O)C1(C)CC(c2cc(-c3cc(F)cnc3Cl)c(F)cc2Cl)=NO1 (stereo not drawn) [Compound 1-475, Ethyl 3-[2-chloro-5-(2-chloro-5-fluoro-3-pyridyl)-4-fluoro-phenyl]-5-methyl-4H-isoxazole-5-carboxylate] | 0 | 0 | 40 | 20 | 0 | 0 | 100 | 100 | 50 | 80 | 30 | 70 | 100 | 10 | 80 |
| CCOC(=O)C1(C)CC(c2cc(-c3ccncc3)c(F)cc2Cl)=NO1 (stereo not drawn) [Compound 1-487, Ethyl 3-[2-chloro-4-fluoro-5-(4-pyridyl)-phenyl]-5-methyl-4H-isoxazole-5-carboxylate] | 0 | 0 | 0 | 0 | 0 | 0 | 30 | 0 | 0 | 0 | 0 | 0 | 0 | 0 | 0 |
